From article PMC8838521, “Antimicrobial, Cytotoxic and Mutagenic Activity of Gemini QAS Derivatives of 1,4:3,6-Dianhydro-L-iditol” (Molecules, 2022)
Several values for one entry are separate records, joined by “and”; a condition that tells them apart may be missing. Equal values may be shown once. Entries after “also recorded” stand apart in the source; their conditions may differ.

Assays:
[1] = Solubility observed during assays; assay type: physicochemical; conditions: for Solubility in water and DMSO: for Ames test; for Solubility in water: observed during antimicrobial assays, DMSO used for solubilisation
[2] = tested on: human keratinocytes (HaCaT cell line); assay: Cytotoxicity, MTT assay; assay type: cell-based; conditions: Homo sapiens, HaCaT; MTT, 24 h incubation; read-out: HaCaT IC50
Description: To assess the cytotoxicity of QAS (IC50), the MTT assay on 96-well polystyrene plates was performed for human keratinocytes (HaCaT, Elabscience Biotechnology Inc., Houston, Texas, USA). The assay utilizes colorimetric determination of the cell metabolic activity and the color intensity reflects the number of live cells that can be measured spectrophotometrically. The cell line was cultured in a Dulbecco’s modified Eagle Medium (Invitrogen) supplemented with 10% fetal bovine serum (Sigma Aldrich) (v/v), 100 units/mL of penicillin, 100 μg/mL of streptomycin, and 2 mM L-glutamine and was stored at 37 °C in a humidified 5% CO2 incubator. Briefly, a day after plating of 500 cells per well, a series of concentrations (0.5–200 μg/mL) of the test compounds was applied. DMSO was added to the control cells at a final concentration of 1.0% (v/v), which was related to the maximal concentration of the solvent compounds used in the experiment. After 24 h of incubation with the QAS at 37 °C (humidified 5% CO2 incubator), a medium containing 1 mg/mL of MTT (3-(4,5-dimethylthiazol-2-yl)-2,5-diphenyltetrazolium bromide) was added to the wells up to a final concentration of 0.5 mg/mL. Subsequently, the plates were incubated at 37 °C for 4 h. Then, the medium was removed by suction, and the formazan product was solubilized with DMSO. The background absorbance at 630 nm was subtracted from that at 570 nm for each well (Epoch, BioTek Instruments, Winooski, VT, USA). Six replicates were conducted for each concentration. All experiments were repeated at least twice and the resulting IC50 values were calculated with GraFit 7 software (v. 7.0, Erithacus, Berkley, CA, USA).

Escherichia coli K12 = assay: Antimicrobial activity, microdilution MIC, E. coli; assay type: cell-based; conditions: Escherichia coli, K12, 24 h, MIC90, 24 h, MHB2; read-out: MIC E. coli K12
Description: (§1) The antimicrobial potential of the tested agents was evaluated against two reference strains of bacteria: Staphylococcus aureus ATCC 25923 and Escherichia coli K12, two reference strains of pathogenic yeasts, Candida albicans ATCC10231 and Candida glabrata DSMZ11226, as well as 20 strains of clinical isolates of S. aureus collected from patients with skin and soft tissue infections (n = 8) and strains derived from subclinical bovine mastitis milk samples (n = 12). Four of these strains, two isolated from human infections and two isolated from bovine mastitis, were classified as MRSA (Methicillin-resistant Staphylococcus aureus). All of them were mecA positive and their methicillin resistance was confirmed with the disc diffusion assay. The remaining 16 strains were MSSA (Methicillin-sensitive Staphylococcus aureus). The assays were performed using a serial, two-fold dilution method in 96-well microtiter plates under conditions recommended by the Clinical and Laboratory Standards Institute (CLSI, Pittsburgh, PA, USA). The aim of this procedure was the determination of the MIC parameter (Minimum Inhibitory Concentration)—the minimum concentration of a tested agent capable to inhibit the growth of a specified strain of microorganism. The agents were solubilized in deionized, sterile water to a final concentration of […]. Subsequently, solutions were mixed (1:1 (v/v)) with 2 × concentrated liquid medium, Mueller-Hinton Broth 2—cation adjusted (MHB2) for evaluation of antibacterial activity and RPMI in the case of evaluation of the antifungal activity. […] Subsequently, the solutions were mixed with MHB2 or RPMI medium to get the final concentration of 8.192 mg/mL (8192 µg/mL). In the next step, the serial, two-fold dilutions of the tested agents (over the range of concentrations from 8192 to 8 µg/mL for reference strains of bacteria and yeasts and from 512 to 1.0 µg/mL for clinical isolates of S. aureus) were prepared in 96-well microtitration plates in the final volume of 100 μL of the appropriate medium.
The pure bacterial cultures of (both the reference and clinical strains) were grown on the Mueller-Hinton Agar (MHA) for 18–24 h at 37 °C. A small amount of the biomass of the culture of each strain of microorganisms was suspended in the sterile PBS (phosphate buffered saline, pH 7.4 at 25 °C, purchased from Sigma) solution to get an optical density OD600 = 0.13 (equal to the cells concentration approximately 1 × 10^8 CFU/mL). The obtained suspensions of the cells were next diluted 1:100 (v/v) in the MHB2 medium. One hundred µL of the cells’ suspension was finally loaded into the wells of plates prepared in advance, which contained 100 µL of two-fold dilutions of the tested agents (the final concentration of the bacterial cells in all wells was approximately 5 × 10^5 CFU/mL).
The pure cultures of yeast strains were grown on the Sabouraud Dextrose Agar (SDA) for 18–24 h at 37 °C. Suspensions of the microorganisms were prepared by taking one loop of pure culture into sterile water and adjusting optical density to 0.1 at 660 nm and further 50-fold dilution in RPMI 1640 medium resulting in cells concentration of approximate 2 × 10^4 CFU/mL. One hundred μL of that suspension was inoculated to the wells of the microtitration plate containing appropriate dilutions of the agents. The positive growth control of each strain (both bacteria and yeasts) was performed in the wells without the tested substances. The negative control containing only the media was included in each assay. Microtiter plates were incubated at 37 °C for 24 h. Following the incubation period, determination of the MIC values of the tested agents was carried out by measuring the absorbance at 531 nm using a Victor^3 microplate reader (Perkin Elmer, Inc., Waltham, MA, USA). The lowest concentration of the agent causing inhibition of growth equal to or higher than 90% (MIC90) of growth control was taken as the MIC value. Each test was repeated three times. […]

[3] = tested on: Candida albicans ATCC 10231; assay: Antimicrobial activity, microdilution MIC, C. albicans; assay type: cell-based; conditions: Candida albicans, ATCC10231, 24 h, MIC90, 24 h, RPMI; read-out: MIC C. albicans ATCC 10231
Description: as §1
The pure cultures of yeast strains were grown on the Sabouraud Dextrose Agar (SDA) for 18–24 h at 37 °C. Suspensions of the microorganisms were prepared by taking one loop of pure culture into sterile water and adjusting optical density to 0.1 at 660 nm and further 50-fold dilution in RPMI 1640 medium resulting in cells concentration of approximate 2 × 10^4 CFU/mL. One hundred μL of that suspension was inoculated to the wells of the microtitration plate containing appropriate dilutions of the agents. The positive growth control of each strain (both bacteria and yeasts) was performed in the wells without the tested substances. The negative control containing only the media was included in each assay. Microtiter plates were incubated at 37 °C for 24 h. Following the incubation period, determination of the MIC values of the tested agents was carried out by measuring the absorbance at 531 nm using a Victor^3 microplate reader (Perkin Elmer, Inc., Waltham, MA, USA). The lowest concentration of the agent causing inhibition of growth equal to or higher than 90% (MIC90) of growth control was taken as the MIC value. Each test was repeated three times.

Compound	Solubility in water and DMSO [1]	Solubility in water [1]	IC50 [2] [µg/mL]	MIC (Escherichia coli K12)	MIC [3]
CCCCCCCCCC[N+](C)(C)C1COC2C1OCC2[N+](C)(C)CCCCCCCCCC [QAS 10, N,N’-(1,4:3,6-Dianhydro-2,5-dideoxy-L-iditol-2,5-diyl)-bis(N,N-dimethyl-N-decylammonium) Ditrifluoromethanesulfonate]	insufficient solubility in both water and DMSO	suppressed water solubility; also recorded: lower solubility in water	12.8 ± 1.25	32 µg/mL and 40 µM	32 µg/mL and 40 µM
CCCCCCCC[N+](C)(C)C1COC2C1OCC2[N+](C)(C)CCCCCCCC (stereo not shown) [QAS 9]	insufficient solubility in both water and DMSO	suppressed water solubility; also recorded: lower solubility in water	> 100	2050 µg/mL and 2820 µM	1020 µg/mL and 1410 µM
